pIC50: −log10 of the molar value. Where a SMILES comes first, the peptide text is derived from it. Where no end group is shown, it is not given here.
Assays:
Test in all cases: biochemical
Assay type in all cases: biochemical
[1] = target: enzyme and uptake assay panel targets (Table 36) (Homo sapiens, UniProt Q9UQM7); conditions: CaMK2α (h); reference compound
[2] = target: enzyme and uptake assay panel targets (Table 36) (Homo sapiens, UniProt P03956)
[3] = target: enzyme and uptake assay panel targets (Table 36) (Homo sapiens, UniProt P08253)
[4] = target: enzyme and uptake assay panel targets (Table 36) (Homo sapiens, UniProt P14780)
[5] = target: enzyme and uptake assay panel targets (Table 36) (Homo sapiens, UniProt P09917)
[6] = target: enzyme and uptake assay panel targets (Table 36) (Homo sapiens, UniProt P18054)
[7] = target: enzyme and uptake assay panel targets (Table 36) (Homo sapiens, UniProt P08473); conditions: Peptidase, Metalloproteinase, Neutral Endopeptidase; reference compound
[8] = target: T1, enzyme and uptake assay panel targets (Table 36) (Bos taurus, UniProt P11541+P23439); conditions: PDE6 (non-selective); reference compound
T1 construct: other: PDE6 (non-selective); 1.0E−05M; nH; bovine retina

[9] = target: enzyme and uptake assay panel targets (Table 36) (Homo sapiens, UniProt Q13370); conditions: PDE3B (h); reference compound
[10] = target: enzyme and uptake assay panel targets (Table 36); conditions: COMT (catechol-O-methyl transferase); reference compound
[11] = target: T2, enzyme and uptake assay panel targets (Table 36) (Bos taurus, UniProt P80457)
T2 construct: other: xanthine oxidase/superoxide 02^−scavenging; nH; other: xanthine oxldase/superoxide 02 ^−scavenging; 1.0E−05M; ot; purified xanthine oxidase from bovine milk

[12] = target: enzyme and uptake assay panel targets (Table 36) (Homo sapiens, UniProt O76074); conditions: PDE5 (h) (non-selective); reference compound
[13] = target: enzyme and uptake assay panel targets (Table 36) (Homo sapiens, UniProt P06241); conditions: Fyn kinase (h); reference compound
[14] = target: enzyme and uptake assay panel targets (Table 36) (Homo sapiens, UniProt Q9BYF1); conditions: ACE-2 (h); reference compound
[15] = target: enzyme and uptake assay panel targets (Table 36) (Homo sapiens, UniProt P42574)
[16] = target: enzyme and uptake assay panel targets (Table 36) (Homo sapiens, UniProt Q14790); conditions: caspase-8 (h); reference compound
[17] = target: T3, enzyme and uptake assay panel targets (Table 36); conditions: ATPase (Na+/K+); reference compound
T3 construct: other: ATPase (Na+/K+); 1.0E−05M; nH; porcine cerebral cortex

Chain of enzyme and uptake assay panel targets (Table 36) (Homo sapiens, UniProt Q14790) (Q14790 217-479): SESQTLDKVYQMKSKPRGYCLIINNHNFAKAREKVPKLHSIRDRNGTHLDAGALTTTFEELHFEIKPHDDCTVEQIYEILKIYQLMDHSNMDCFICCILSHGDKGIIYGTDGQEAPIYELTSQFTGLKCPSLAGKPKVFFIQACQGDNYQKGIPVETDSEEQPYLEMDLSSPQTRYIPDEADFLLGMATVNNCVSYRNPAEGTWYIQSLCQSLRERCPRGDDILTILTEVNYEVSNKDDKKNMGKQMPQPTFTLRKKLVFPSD
Chain of enzyme and uptake assay panel targets (Table 36) (Homo sapiens, UniProt Q9BYF1) (Q9BYF1 18-805): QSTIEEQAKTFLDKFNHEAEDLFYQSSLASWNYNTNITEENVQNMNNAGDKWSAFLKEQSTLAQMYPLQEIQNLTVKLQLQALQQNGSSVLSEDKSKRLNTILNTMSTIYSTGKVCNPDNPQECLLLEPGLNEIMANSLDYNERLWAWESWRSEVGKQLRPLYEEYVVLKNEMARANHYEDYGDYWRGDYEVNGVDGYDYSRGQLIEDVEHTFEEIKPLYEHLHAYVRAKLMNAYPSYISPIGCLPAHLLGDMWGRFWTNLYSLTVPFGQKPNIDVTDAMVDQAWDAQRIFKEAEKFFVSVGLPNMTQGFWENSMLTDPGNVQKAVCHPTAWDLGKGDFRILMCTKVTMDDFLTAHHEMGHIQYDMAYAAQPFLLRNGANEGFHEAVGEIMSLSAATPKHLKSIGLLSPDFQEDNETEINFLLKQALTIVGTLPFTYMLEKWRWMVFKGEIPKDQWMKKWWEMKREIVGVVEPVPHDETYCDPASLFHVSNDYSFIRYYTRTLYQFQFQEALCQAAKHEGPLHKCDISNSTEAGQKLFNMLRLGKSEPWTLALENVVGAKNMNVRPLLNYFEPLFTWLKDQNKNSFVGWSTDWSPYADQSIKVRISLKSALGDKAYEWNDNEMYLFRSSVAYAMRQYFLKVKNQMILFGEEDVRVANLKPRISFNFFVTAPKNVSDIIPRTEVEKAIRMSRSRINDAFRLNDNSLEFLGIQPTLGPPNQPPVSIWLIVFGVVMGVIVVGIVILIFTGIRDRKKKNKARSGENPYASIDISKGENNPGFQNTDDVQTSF
Chain of enzyme and uptake assay panel targets (Table 36) (Homo sapiens, UniProt P08473) (P08473 whole entry): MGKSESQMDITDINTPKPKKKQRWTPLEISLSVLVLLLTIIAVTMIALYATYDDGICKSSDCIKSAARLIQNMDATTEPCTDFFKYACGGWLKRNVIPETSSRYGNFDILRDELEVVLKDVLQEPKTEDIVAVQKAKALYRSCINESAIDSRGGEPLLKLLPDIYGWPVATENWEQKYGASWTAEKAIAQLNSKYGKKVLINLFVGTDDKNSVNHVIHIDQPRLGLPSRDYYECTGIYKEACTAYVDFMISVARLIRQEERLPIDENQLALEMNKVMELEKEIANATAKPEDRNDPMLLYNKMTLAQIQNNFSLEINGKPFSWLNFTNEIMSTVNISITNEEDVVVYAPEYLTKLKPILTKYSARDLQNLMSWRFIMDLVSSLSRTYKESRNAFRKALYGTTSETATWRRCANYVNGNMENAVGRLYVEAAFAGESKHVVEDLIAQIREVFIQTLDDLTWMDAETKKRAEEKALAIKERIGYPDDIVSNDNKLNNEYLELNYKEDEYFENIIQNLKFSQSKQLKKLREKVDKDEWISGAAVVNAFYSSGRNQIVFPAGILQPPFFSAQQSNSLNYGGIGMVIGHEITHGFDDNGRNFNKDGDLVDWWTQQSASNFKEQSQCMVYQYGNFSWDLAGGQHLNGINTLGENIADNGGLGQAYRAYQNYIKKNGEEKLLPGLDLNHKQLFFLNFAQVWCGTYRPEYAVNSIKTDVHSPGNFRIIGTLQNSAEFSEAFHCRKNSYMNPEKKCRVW
Chain of enzyme and uptake assay panel targets (Table 36) (Homo sapiens, UniProt P18054) (P18054 whole entry): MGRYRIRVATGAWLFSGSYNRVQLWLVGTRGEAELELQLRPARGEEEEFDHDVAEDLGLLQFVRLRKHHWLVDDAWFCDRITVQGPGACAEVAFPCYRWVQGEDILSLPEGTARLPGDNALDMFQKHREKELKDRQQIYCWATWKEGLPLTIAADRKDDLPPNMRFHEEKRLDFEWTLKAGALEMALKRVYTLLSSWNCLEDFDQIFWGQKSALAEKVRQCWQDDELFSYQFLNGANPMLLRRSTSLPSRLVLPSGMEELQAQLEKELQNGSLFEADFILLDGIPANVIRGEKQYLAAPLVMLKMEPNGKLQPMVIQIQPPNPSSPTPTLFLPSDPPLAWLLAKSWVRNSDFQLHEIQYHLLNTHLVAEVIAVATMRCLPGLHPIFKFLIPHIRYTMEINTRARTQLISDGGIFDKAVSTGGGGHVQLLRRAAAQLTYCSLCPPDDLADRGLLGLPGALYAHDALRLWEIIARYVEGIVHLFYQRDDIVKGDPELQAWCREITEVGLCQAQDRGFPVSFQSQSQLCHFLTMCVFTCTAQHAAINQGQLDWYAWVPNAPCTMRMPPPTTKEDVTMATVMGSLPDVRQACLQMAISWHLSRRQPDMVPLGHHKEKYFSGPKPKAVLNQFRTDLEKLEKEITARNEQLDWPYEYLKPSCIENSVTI
T1 sequence (P11541 2-856): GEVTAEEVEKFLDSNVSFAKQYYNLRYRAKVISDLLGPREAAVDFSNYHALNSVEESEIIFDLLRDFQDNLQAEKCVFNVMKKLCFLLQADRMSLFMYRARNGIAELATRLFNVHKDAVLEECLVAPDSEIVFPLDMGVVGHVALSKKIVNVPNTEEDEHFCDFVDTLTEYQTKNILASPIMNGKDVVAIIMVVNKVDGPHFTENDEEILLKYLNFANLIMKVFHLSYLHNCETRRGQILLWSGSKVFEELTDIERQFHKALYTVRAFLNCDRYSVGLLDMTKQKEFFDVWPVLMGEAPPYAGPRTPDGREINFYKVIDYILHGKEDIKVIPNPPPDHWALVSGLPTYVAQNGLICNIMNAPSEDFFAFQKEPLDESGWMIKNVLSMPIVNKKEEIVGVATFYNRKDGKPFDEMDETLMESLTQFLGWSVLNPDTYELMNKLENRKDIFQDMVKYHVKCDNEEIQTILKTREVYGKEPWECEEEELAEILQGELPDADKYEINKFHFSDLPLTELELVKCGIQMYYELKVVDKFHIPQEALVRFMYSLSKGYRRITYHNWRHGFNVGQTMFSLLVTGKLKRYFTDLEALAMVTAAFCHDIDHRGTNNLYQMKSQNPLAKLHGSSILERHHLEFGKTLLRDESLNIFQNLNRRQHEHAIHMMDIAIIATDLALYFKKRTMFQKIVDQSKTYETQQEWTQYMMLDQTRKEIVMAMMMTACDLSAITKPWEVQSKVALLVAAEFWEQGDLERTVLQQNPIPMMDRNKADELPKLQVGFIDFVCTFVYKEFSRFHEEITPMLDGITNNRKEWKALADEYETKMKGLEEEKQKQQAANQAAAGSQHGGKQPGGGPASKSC
T1 sequence (P23439 2-850): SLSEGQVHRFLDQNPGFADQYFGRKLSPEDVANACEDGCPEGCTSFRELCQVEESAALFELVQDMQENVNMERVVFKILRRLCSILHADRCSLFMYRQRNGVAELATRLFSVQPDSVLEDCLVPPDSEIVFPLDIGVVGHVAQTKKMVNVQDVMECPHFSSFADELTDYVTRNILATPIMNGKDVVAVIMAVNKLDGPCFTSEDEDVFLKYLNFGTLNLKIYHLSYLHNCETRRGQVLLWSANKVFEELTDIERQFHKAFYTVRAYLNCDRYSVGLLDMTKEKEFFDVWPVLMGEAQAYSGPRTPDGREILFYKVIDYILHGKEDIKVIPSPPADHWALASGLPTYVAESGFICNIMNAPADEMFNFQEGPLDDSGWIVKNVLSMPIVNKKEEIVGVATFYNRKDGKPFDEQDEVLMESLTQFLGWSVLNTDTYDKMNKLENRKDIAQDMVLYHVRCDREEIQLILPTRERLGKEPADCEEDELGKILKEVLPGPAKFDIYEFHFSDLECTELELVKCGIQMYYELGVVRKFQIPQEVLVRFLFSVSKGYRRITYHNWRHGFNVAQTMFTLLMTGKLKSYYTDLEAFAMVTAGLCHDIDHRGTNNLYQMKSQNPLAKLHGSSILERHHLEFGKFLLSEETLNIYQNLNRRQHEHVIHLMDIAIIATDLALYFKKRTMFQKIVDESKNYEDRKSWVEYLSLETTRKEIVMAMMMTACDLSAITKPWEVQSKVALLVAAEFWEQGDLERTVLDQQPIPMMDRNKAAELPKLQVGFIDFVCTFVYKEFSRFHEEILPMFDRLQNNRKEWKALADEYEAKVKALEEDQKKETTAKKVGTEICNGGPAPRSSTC
T1 sequence (P04972 whole entry, further chain): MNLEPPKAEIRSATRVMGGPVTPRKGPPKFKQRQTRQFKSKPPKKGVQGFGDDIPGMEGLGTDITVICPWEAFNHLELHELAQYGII
Chain of enzyme and uptake assay panel targets (Table 36) (Homo sapiens, UniProt P09917) (P09917 whole entry): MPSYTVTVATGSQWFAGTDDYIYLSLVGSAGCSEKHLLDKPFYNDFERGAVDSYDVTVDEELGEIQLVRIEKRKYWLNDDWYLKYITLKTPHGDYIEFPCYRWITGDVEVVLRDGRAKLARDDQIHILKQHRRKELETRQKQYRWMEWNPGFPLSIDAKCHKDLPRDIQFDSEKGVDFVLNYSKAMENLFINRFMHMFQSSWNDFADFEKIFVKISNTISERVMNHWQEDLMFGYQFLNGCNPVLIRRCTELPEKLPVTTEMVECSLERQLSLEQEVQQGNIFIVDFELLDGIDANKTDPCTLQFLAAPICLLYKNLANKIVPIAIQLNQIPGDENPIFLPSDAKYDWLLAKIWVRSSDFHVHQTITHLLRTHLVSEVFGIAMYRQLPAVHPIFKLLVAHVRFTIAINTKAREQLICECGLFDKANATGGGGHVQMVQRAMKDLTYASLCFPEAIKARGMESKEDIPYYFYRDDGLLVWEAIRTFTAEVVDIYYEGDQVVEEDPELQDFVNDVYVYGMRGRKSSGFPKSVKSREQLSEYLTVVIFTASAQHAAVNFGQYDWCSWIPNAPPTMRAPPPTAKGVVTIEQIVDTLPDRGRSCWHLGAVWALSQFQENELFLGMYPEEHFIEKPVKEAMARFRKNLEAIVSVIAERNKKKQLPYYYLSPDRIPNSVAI

With KKALRRQEAVDAL [AIP] the “IC50” value [1] was 260 nM.
CNC(=O)[C@H](Cc1c[nH]c2ccccc12)NC(=O)[C@@H](CC(=O)NO)CC(C)C [GM6001] was tested, and the nH [2] was 1.3, the nH [3] was 1.3 and the nH [4] was 0.9.
Work on CC(Cc1ccc(O)c(O)c1)C(C)Cc1ccc(O)c(O)c1 (centres unmarked) [NDGA] yielded a nH [5] of 1.6 and a nH [6] of 1.2.
CC(C)C[C@H](NP(=O)(O)O[C@@H]1O[C@@H](C)[C@H](O)[C@@H](O)[C@H]1O)C(=O)N[C@@H](Cc1c[nH]c2ccccc12)C(=O)O [Phosphoramidon] was tested, and the “IC50” value [7] was 16 nM and the nH [7] was 0.9.
In the case of CCCOc1ccccc1-c1nc2nn[nH]c2c(=O)[nH]1 [zaprinast], the nH [8] was 1.0.
Cc1[nH]c(=O)c(C#N)cc1-c1ccncc1 [milrinone] gave a nH [9] of 0.9.
O=C(c1cc(O)c(O)c([N+](=O)[O-])c1)c1ccccc1F [Ro 41-0960] gave a pIC50 [10] of 7.52.
With Oc1ncnc2[nH]ncc12 [allopurinol] the nH [11] was 1.3.
Work on OCCN(CCO)c1nc(N2CCCCC2)c2nc(N(CCO)CCO)nc(N3CCCCC3)c2n1 [dipyridamole] yielded a nH [12] of 1.1.
Cc1ccc(-c2nn(C(C)(C)C)c3ncnc(N)c23)cc1 [PP1] showed a nH [13] greater than 3.
In the case of CC(=O)NCC(=O)N[C@@H](CC(=O)O)C(=O)N[C@@H](Cc1ccc(O)cc1)C(=O)N[C@@H](CO)C(=O)N[C@@H](Cc1c[nH]cn1)C(=O)N[C@H]1CSSC[C@@H](C(=O)N[C@H](C(=O)N[C@@H](Cc2ccc(O)cc2)C(=O)N2CCC[C@H]2C(=O)N[C@@H](CC(=O)O)C(=O)N2CCC[C@H]2C(=O)N[C@@H](CCC(=O)O)C(=O)NCC(=O)NCC(=O)NCC(N)=O)[C@@H](C)O)NC(=O)[C@H](CCCCN)NC(=O)[C@H](Cc2c[nH]c3ccccc23)NC(=O)[C@H](Cc2c[nH]c3ccccc23)NC(=O)[C@@H]2CCCN2C(=O)[C@H](Cc2ccc(O)cc2)NC(=O)[C@H](Cc2ccc(O)cc2)NC(=O)[C@H](CCCNC(=N)N)NC(=O)[C@H](CC(C)C)NC(=O)[C@@H]2CCCN2C(=O)[C@H](CO)NC1=O [Ac-GG-26-NH2], the “IC50” value [14] was 290 nM and the nH [14] was 2.4.
CC(=O)N[C@@H](CC(=O)O)C(=O)N[C@@H](CCC(=O)O)C(=O)N[C@H](C(=O)N[C@H](C=O)CC(=O)O)C(C)C [Ac-DEVD-CHO] gave a nH [15] of 1.1.
CC[C@H](C)[C@H](NC(C)=O)C(=O)N[C@@H](CCC(=O)O)C(=O)N[C@H](C(=O)N[C@H](C=O)CC(=O)O)[C@@H](C)O [Ac-IETD-CHO] (Ac-IETD-aldehyde) was tested, and the “IC50” value [16] was 28 nM and the nH [16] was 0.8.
Compound C[C@@H]1O[C@@H](O[C@H]2C[C@@H](O)[C@]3(CO)[C@H]4[C@H](O)C[C@]5(C)[C@@H](C6=CC(=O)OC6)CC[C@]5(O)[C@@H]4CC[C@]3(O)C2)[C@H](O)[C@H](O)[C@H]1O [ouabain] has a pIC50 [17] of 6.00.

Source: patent publication US12240816B2, “Deuterated compounds and uses thereof” (Aldeyra Therapeutics, Inc., priority 2015, dated 2025)
